Results as given in US9637488B2, “Heterocyclic compounds as inhibitors of class I PI3KS” (priority 2015, dated 2017).

What was measured:
Format in all cases: biochemical
PI3Kδ (p110δ/p85α) = PI3Kδ (p110δ/p85α) (Homo sapiens (Human), UniProt O00329); experiment: cell-free PI3K HTRF assay, PI3Kδ; settings: for IC50: 10-dose IC50 mode, 3-fold serial dilution starting at 1 μM, ATP 10 μM, read-out: IC50 value for the inhibition of PI3Kδ; for potency or inhibition against PI3Kδ (in words): qualitative statement
PI3Kβ (p110β/p85α) = PI3Kβ (p110β/p85α) (Homo sapiens (Human), UniProt P42338); experiment: cell-free PI3K HTRF assay, PI3Kβ; settings: ratio of IC50 against PI3Kβ related to PI3Kδ; 10-dose, 3-fold serial dilution starting at 10 μM
Method: (§1) Exemplary compounds of the invention were tested for inhibitory activity and potency against class I PI3Ks (p110α/p85α, p110β/p85α, p110δ/p85α and p110γ) using a cell-free based PI3K HTRF assay. This assay was used to detect the formation of the product 3,4,5-inositol triphosphate molecule (PIP3) by displacement of biotin-PIP3 from an energy transfer complex consisting of Europium labeled anti-GST monoclonal antibody, a GST-tagged pleckstrin homology (PH) domain, biotinylated PIP3 and Streptavidin-Allophycocyanin (APC). Excitation of Europium in the complex results in an energy transfer to the APC and a fluorescent emission at 665 nm. The PIP3 product formed by human PI 3-Kinase activity displaces biotin-PIP3 from the complex resulting in a loss of energy transfer and thus a decrease in signal.
(§2) Human class I PI3K isoforms were co-expressed in a Baculovirus infected cell expression system. The PI3K isoforms were assayed in the presence of HEPES (50 mM, pH 7.0), NaN3 (0.02%), BSA (0.01%), orthovanadate (0.1 mM), and DMSO (1%). The exemplary compounds dissolved in DMSO were delivered into the kinase reaction mixture by Acoustic technology (Echo550; nanolitter range), and were pre-incubated for 10 min at room temperature before adding ATP (10 μM) to initiate the reaction. After 30 min at 30° C., the reactions were quenched with a stop solution, incubated overnight with a detection mixture before measuring HTRF (Ex: 320 nm; Em: 615/665 nm). The emission ratio is converted into μM PIP3 production based on PIP3 standard curves, and the nonlinear regression to obtain the standard curve and IC50 values are performed using Graphpad Prism software.
(§3) The assays were performed at Reaction Biology Corporation, One Great Valley Parkway, Suite 2, Malvern, Pa. 19355, USA.
(§4) Exemplary compounds of the invention selected were further tested their inhibitory activity or potency against PI3Kα, PI3Kβ, and PI3Kγ in 10-dose IC50 mode with 3-fold serial dilution starting at 10 μM. […] Table 5 below illustrates the selectivity of the exemplary compounds using the ratios of the IC50 values of the compounds against PI3Kα, PI3Kβ, and PI3Kγ related to PI3Kδ. […] Such unexpected selectivity against PI3Kδ and/or PI3Kγ is attributed to the unusual overall shape of the molecules of formula (I) and (II), and the optimal selection of R1, R2, R3, R4, X, and Y defined in formula (I) and (II) in order to bind favorably in the ATP-binding pocket of PI3Kδ and/or PI3Kγ versus other class I isozymes.

PI3Kγ (p110γ) = PI3Kγ (p110γ) (Homo sapiens (Human), UniProt P48736); experiment: cell-free PI3K HTRF assay, PI3Kγ; settings: ratio of IC50 against PI3Kγ related to PI3Kδ; 10-dose, 3-fold serial dilution starting at 10 μM
Method: as §1, §2, §3, §4

PI3Kα (p110α/p85α) = PI3Kα (p110α/p85α) (Homo sapiens (Human), UniProt P42336); experiment: cell-free PI3K HTRF assay, PI3Kα; settings: ratio of IC50 against PI3Kα related to PI3Kδ; 10-dose, 3-fold serial dilution starting at 10 μM
Method: as §1, §2, §3, §4

Chain of PI3Kα (p110α/p85α) (P42336 whole entry): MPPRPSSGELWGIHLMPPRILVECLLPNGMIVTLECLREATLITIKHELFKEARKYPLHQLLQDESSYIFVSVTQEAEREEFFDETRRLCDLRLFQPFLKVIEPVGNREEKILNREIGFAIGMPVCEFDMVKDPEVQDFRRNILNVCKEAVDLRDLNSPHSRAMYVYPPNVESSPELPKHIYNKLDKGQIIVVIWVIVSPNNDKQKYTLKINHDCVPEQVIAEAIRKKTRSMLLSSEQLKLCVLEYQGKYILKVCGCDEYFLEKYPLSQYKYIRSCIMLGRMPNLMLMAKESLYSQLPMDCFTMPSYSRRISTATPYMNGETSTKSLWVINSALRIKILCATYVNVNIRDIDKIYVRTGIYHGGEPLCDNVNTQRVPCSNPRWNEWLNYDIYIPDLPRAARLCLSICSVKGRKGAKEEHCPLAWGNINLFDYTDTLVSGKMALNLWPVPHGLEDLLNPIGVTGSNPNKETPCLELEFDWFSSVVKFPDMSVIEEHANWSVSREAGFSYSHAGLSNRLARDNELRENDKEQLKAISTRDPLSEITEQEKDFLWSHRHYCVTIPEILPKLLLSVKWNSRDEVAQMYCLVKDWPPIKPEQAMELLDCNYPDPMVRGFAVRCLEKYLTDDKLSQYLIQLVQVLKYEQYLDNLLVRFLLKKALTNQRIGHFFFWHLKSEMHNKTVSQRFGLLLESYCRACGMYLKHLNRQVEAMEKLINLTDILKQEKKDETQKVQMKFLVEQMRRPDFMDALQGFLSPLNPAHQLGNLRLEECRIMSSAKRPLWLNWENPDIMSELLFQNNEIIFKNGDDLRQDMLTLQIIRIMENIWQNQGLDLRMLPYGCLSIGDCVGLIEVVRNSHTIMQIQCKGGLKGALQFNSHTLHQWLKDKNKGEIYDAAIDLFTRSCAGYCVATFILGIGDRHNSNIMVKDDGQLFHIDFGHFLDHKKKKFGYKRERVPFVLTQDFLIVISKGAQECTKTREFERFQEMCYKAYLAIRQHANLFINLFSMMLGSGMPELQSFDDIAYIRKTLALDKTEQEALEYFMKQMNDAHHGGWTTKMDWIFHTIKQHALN
Chain of PI3Kα (p110α/p85α) (P27986 whole entry partner): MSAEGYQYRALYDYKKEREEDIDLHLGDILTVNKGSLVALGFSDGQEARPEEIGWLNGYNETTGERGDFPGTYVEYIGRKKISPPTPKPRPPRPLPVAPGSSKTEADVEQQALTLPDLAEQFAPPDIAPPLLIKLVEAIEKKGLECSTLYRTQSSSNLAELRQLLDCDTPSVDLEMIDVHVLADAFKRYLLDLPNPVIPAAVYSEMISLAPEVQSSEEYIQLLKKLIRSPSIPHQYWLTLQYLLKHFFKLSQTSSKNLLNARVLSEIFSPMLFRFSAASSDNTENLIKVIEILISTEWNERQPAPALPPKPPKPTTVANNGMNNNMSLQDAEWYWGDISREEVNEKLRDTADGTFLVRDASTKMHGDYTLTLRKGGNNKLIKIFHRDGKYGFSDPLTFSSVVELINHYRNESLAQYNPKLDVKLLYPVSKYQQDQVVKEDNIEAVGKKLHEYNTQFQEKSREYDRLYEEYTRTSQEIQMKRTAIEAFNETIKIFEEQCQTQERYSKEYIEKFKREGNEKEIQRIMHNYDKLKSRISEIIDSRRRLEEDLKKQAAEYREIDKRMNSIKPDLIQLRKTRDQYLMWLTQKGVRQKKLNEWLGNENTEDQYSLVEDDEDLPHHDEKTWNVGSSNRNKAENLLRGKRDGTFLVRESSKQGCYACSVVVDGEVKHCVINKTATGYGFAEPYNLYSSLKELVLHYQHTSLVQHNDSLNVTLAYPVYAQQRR
Chain of PI3Kδ (p110δ/p85α) (O00329 whole entry): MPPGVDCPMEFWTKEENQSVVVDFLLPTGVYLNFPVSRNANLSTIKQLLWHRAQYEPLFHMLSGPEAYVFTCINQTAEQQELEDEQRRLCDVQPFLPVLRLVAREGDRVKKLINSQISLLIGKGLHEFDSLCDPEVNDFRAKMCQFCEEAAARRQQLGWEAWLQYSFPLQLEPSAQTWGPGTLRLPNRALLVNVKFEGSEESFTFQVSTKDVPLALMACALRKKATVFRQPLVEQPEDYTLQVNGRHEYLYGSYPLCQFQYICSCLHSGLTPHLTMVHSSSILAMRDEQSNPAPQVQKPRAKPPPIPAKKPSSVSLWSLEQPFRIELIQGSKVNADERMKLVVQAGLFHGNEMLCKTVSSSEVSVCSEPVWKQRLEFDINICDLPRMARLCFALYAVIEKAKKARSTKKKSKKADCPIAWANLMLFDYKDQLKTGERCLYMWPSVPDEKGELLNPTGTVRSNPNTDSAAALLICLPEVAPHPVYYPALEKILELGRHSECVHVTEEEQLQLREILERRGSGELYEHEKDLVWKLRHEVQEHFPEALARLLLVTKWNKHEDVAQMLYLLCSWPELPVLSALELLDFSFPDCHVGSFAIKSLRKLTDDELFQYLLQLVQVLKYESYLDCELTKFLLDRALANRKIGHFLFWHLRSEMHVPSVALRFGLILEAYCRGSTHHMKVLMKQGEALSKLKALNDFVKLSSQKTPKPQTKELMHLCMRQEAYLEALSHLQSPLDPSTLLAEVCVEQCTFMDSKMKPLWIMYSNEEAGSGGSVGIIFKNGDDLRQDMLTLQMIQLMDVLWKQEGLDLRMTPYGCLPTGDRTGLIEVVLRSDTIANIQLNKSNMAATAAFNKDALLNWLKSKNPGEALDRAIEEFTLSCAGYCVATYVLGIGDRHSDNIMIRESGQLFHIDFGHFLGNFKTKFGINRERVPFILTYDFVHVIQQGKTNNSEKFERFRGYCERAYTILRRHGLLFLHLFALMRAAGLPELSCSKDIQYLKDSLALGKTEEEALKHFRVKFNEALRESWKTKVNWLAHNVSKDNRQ
Chain of PI3Kδ (p110δ/p85α) (P27986 whole entry partner): as the sequence (P27986 whole entry partner) above
Chain of PI3Kβ (p110β/p85α) (P42338 whole entry): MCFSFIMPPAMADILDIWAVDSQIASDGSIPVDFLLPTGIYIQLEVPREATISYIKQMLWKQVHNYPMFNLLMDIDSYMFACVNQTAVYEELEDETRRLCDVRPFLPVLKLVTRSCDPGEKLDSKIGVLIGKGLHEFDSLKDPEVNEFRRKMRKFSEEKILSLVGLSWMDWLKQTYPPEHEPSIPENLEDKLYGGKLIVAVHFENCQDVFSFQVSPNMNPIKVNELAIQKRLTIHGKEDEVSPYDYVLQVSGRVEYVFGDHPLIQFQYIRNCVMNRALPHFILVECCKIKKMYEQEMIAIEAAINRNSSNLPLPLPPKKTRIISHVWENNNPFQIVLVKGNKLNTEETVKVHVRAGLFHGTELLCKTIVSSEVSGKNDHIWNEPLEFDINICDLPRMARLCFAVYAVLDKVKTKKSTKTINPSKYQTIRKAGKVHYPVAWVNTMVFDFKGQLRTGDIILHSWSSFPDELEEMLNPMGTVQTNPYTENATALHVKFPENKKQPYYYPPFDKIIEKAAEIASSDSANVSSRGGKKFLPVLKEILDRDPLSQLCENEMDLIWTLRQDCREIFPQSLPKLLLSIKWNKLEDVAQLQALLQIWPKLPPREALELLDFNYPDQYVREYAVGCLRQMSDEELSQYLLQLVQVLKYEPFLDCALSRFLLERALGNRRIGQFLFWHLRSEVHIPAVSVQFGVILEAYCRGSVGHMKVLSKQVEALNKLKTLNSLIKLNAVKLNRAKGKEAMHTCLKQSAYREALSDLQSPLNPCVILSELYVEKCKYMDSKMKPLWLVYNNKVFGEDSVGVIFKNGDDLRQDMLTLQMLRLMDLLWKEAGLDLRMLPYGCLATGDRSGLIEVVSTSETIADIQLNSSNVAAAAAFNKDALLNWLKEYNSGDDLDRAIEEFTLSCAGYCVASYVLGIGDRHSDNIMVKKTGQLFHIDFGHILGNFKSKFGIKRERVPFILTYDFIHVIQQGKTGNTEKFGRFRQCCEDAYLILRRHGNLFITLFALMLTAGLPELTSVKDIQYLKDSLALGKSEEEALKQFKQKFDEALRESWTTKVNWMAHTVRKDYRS
Chain of PI3Kβ (p110β/p85α) (P27986 whole entry partner): as the sequence (P27986 whole entry partner) above
Chain of PI3Kγ (p110γ) (P48736 whole entry): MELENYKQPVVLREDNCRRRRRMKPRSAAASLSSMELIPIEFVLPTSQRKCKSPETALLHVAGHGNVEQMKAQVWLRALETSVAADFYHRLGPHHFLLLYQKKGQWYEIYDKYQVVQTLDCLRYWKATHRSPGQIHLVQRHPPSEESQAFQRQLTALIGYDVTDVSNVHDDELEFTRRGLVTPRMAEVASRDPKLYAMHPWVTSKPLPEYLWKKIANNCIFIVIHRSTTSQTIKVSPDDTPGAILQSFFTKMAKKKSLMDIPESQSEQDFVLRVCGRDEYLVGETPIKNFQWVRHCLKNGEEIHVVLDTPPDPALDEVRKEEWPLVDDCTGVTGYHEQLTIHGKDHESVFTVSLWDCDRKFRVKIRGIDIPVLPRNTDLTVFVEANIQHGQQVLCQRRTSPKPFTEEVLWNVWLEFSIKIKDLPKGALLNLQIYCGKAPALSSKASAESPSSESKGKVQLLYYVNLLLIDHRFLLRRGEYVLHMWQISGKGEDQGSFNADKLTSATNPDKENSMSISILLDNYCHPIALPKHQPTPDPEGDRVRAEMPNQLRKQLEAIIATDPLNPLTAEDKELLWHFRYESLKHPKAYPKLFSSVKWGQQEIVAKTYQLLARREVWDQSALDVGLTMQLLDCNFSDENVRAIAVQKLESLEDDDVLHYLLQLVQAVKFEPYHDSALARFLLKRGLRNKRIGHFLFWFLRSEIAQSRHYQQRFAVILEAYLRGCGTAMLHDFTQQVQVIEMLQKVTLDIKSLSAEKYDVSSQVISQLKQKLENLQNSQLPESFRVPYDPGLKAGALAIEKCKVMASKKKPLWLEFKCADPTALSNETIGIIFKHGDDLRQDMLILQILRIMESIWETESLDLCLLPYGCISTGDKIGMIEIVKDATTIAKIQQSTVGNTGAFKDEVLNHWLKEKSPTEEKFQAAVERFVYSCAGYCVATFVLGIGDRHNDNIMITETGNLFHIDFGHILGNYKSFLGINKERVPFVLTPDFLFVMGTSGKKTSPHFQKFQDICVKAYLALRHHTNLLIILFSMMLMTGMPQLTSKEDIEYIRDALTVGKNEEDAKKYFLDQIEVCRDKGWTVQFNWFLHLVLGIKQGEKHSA

SMILES | IC50 (PI3Kδ (p110δ/p85α)) [nM] | Ratio (β/δ) (PI3Kβ (p110β/p85α)) | Ratio (γ/δ) (PI3Kγ (p110γ)) | Ratio (α/δ) (PI3Kα (p110α/p85α)) | potency or inhibition against PI3Kδ (in words) (PI3Kδ (p110δ/p85α))
Fc1ccc2cc(C3CCCN3c3ncnc4[nH]cnc34)c(-c3cccnc3)nc2c1 (centres unmarked) [Compound 1, 3-(1-(9H-purin-6-yl)pyrrolidin-2-yl)-7-fluoro-2-(pyridin-3-yl)quinoline] | 27 | 267 | 39 |  | 
N#Cc1c(N)ncnc1N1CCCC1c1cc2ccc(F)cc2nc1N1CCOCC1 (centres unmarked) [Compound 7, 4-amino-6-(2-(7-fluoro-2-morpholinoquinolin-3-yl)pyrrolidin-1-yl)pyrimidine-5-carbonitrile] | 1.6 | 344 | 111 | 1000 | 
Fc1ccc2cc(C3CCCN3c3ncnc4[nH]cnc34)c(-c3ccccn3)nc2c1 (centres unmarked) [Compound 10, 3-(1-(9H-purin-6-yl)pyrrolidin-2-yl)-7-fluoro-2-(pyridin-2-yl)quinoline] | 13 | 519 | 53 | >781 | 
Cn1c(=O)n(C)c2c(N3CCCC3c3cc4ccc(F)cc4nc3-c3ccccn3)ncnc21 (centres unmarked) [Compound 13] | > 1000 |  |  |  | week potency or inhibition
Fc1ccc2cc(C3CCCN3c3ncnc4[nH]cnc34)c(-c3ccncc3)nc2c1 (centres unmarked) [Compound 14] | 521 | 4.2 | 3.3 | >19 | 
N#Cc1c(N)ncnc1N1CCCC1c1cc2ccc(F)cc2nc1-c1ccncc1 (centres unmarked) [Compound 15] | 62 | 11 | 2.2 | 138 | 
Fc1ccc2cc(C3CCCN3c3ncnc4[nH]cnc34)c(N3CCCCC3)nc2c1 (centres unmarked) [Compound 16] | 2.2 | 1153 | 145 | 3360 | 
Nc1nc(N2CCCC2c2cc3ccc(F)cc3nc2N2CCCCC2)c2nc[nH]c2n1 (centres unmarked) [Compound 17] | 0.9 | 1714 | 1.1 | 5958 | 
N#Cc1c(N)ncnc1N1CCCC1c1cc2ccc(F)cc2nc1N1CCCCC1 (centres unmarked) [Compound 18] | 0.1 | 14712 | 955 | >100000 | 
Fc1ccc2cc(C3CCCN3c3ncnc4[nH]cnc34)c(N3CCOCC3)nc2c1 (centres unmarked) [Compound 20] | 19 | 190 | 18.8 | 528 | 
Fc1ccc2cc(C3CCCN3c3ncnc4[nH]cnc34)c(-c3ccccc3)nc2c1 (centres unmarked) [Compound 21] | 0.7 | 3550 | 67.5 | 12818 | 
Fc1cccc(-c2nc3cc(F)ccc3cc2C2CCCN2c2ncnc3[nH]cnc23)c1 (centres unmarked) [Compound 22] | 0.5 | 8946 | 139 | 16451 | 
COc1cccc(-c2nc3cc(F)ccc3cc2C2CCCN2c2ncnc3[nH]cnc23)c1 (centres unmarked) [Compound 23] | 11 | 396 | 50 | >926 | 
Fc1ccc2cc(C3CCCN3c3ncnc4[nH]cnc34)c(-c3ccccc3F)nc2c1 (centres unmarked) [Compound 24] | 16 | 393 | 22 | >613 | 
COc1ccccc1-c1nc2cc(F)ccc2cc1C1CCCN1c1ncnc2[nH]cnc12 (centres unmarked) [Compound 25] | 14 | 297 | 5.1 | >694 | 
Fc1ccc2cc(C3CCCN3c3ncnc4[nH]cnc34)c(-c3cccc(OC(F)(F)F)c3)nc2c1 (centres unmarked) [Compound 26] | 207 | 39.7 | 12 | 483 | 
N#Cc1c(N)nc(N)nc1N1CCCC1c1cc2ccc(F)cc2nc1-c1ccccc1 (centres unmarked) [Compound 27] | < 0.05 | >2185 | >2.3 | >12756 | 

SMILES | IC50 (PI3Kδ (p110δ/p85α)) [nM] | Ratio (β/δ) (PI3Kβ (p110β/p85α)) | Ratio (γ/δ) (PI3Kγ (p110γ)) | Ratio (α/δ) (PI3Kα (p110α/p85α)) | potency or inhibition against PI3Kδ (in words) (PI3Kδ (p110δ/p85α))
Nc1cc(N2CCCC2c2cc3ccc(F)cc3nc2-c2ccccc2)nc(N)n1 (centres unmarked) [Compound 28] | > 1000 |  |  |  | 
N#Cc1c(N)ncnc1N1CCCC1c1cc2ccc(F)cc2nc1-c1ccccc1 (centres unmarked) [Compound 29] | 1.7 | 478 | 52.4 | 2170 | 
COc1cccc(-c2nc3cc(F)ccc3cc2C2CCCN2c2ncnc(N)c2C#N)c1 (centres unmarked) [Compound 30] | 4.8 | 631 | 85 | 962 | 
Fc1ccc2cc(C3CC=CCN3c3ncnc4[nH]cnc34)c(-c3ccccc3)nc2c1 (centres unmarked) [Compound 31, 3-(1-(9H-purin-6-yl)-1,2,3,6-tetrahydropyridin-2-yl)-7-fluoro-2-phenylquinoline] | 103 | >97 | 16 |  | 
Fc1ccc2cc(C3CCCCN3c3ncnc4[nH]cnc34)c(N3CCOCC3)nc2c1 (centres unmarked) [Compound 38, 4-(3-(1-(9H-purin-6-yl)piperidin-2-yl)-7-fluoroquinolin-2-yl)morpholine] | 7.1 | 537 | 106 | 529 | 
Fc1ccc2cc(C3CCCCN3c3ncnc4[nH]cnc34)c(-c3ccccc3)nc2c1 (centres unmarked) [Compound 41] | 240 |  |  |  | 
N#Cc1c(N)ncnc1N1CC=CCC1c1cc2ccc(F)cc2nc1-c1ccccc1 (centres unmarked) [Compound 42] | 55 | >181 | 103 |  | 
Fc1ccc2cc(C3CC=CCN3c3ncnc4[nH]cnc34)c(N3CCOCC3)nc2c1 (centres unmarked) [Compound 43] | 6.8 | 169 | 39 | 689 | 
N#Cc1c(N)ncnc1N1CC=CCC1c1cc2ccc(F)cc2nc1N1CCOCC1 (centres unmarked) [Compound 44] | 6.2 | 297 | 152 |  | 
Fc1ccc2cc(C3CCCCCN3c3ncnc4[nH]cnc34)c(-c3ccccc3)nc2c1 (centres unmarked) [Compound 45, 3-(1-(9H-purin-6-yl)azepan-2-yl)-7-fluoro-2-phenylquinoline] | > 1000 |  |  |  | week potency or inhibition
Cc1cccc2cc([C@@H]3CCCN3c3nc(N)nc(N)c3C#N)c(-c3ccccc3)nc12 [Compound 54, (S)-2,4-diamino-6-(2-(8-methyl-2-phenylquinolin-3-yl)pyrrolidin-1-yl)pyrimidine-5-carbonitrile] | < 0.05 | >1120 | ~10 | >1801 | 
Fc1ccc2cc([C@@H]3CCCN3c3ncnc4[nH]cnc34)c(-c3ccccn3)nc2c1 [Compound 62] | 12.8 | 520 | 53 | >781 | 
Cc1cccc2cc([C@@H]3CCCN3c3ncnc4[nH]cnc34)c(-c3ccccc3)nc12 [Compound 63] | 18 | 264 | 5.6 | 556 | 
Cc1cccc2cc([C@@H]3CCCN3c3ncnc4[nH]cnc34)c(N3CCOCC3)nc12 [Compound 64] | 1.6 | 317 | 48 | 748 | 
Cc1cccc2cc([C@@H]3CCCN3c3ncnc(N)c3C#N)c(N3CCOCC3)nc12 [Compound 65] | < 0.05 | >789 | >188 | >1738 | 
Clc1cccc2cc([C@@H]3CCCN3c3ncnc4[nH]cnc34)c(N3CCOCC3)nc12 [Compound 66] | 1.8 | 250 | 24 | 493 | 
N#Cc1c(N)ncnc1N1CCC[C@H]1c1cc2cccc(Cl)c2nc1-c1ccccc1 [Compound 67] | < 0.05 | 1368 | >5.6 | >8583 | 
